{"source": "the supplement of paper PMC10307832", "experiment_in_all_cases": "relative viability (nuclei count vs DMSO), 5 days (fraction); higher = more cells survive", "key": {"Bosutinib + Linsitinib": {"compound": "COc1cc(Nc2c(C#N)cnc3cc(OCCCN4CCN(C)CC4)c(OC)cc23)c(Cl)cc1Cl [Bosutinib] + C[C@]1(O)C[C@@H](c2nc(-c3ccc4ccc(-c5ccccc5)nc4c3)c3c(N)nccn32)C1 [Linsitinib] (partner 1 µM)", "outline": "(§1)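 Lung cancer cell lines were pin-tool dosed in 1536-well plates on the day after seeding, with either a lone drug or a fixed anchor-drug dose plus five library-drug doses (not always all listed) in √10 steps. Nuclei were counted on 4× images after 5 days. Relative viability is the ratio of treated-well to vehicle-well nuclei counts, with each value a median of duplicate plates.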"}, "Bosutinib + Crizotinib": {"compound": "COc1cc(Nc2c(C#N)cnc3cc(OCCCN4CCN(C)CC4)c(OC)cc23)c(Cl)cc1Cl [Bosutinib] + C[C@@H](Oc1cc(-c2cnn(C3CCNCC3)c2)cnc1N)c1c(Cl)ccc(F)c1Cl [Crizotinib] (partner 1 µM)", "outline": "as §1"}, "Bosutinib + AZD7762": {"compound": "COc1cc(Nc2c(C#N)cnc3cc(OCCCN4CCN(C)CC4)c(OC)cc23)c(Cl)cc1Cl [Bosutinib] + NC(=O)Nc1cc(-c2cccc(F)c2)sc1C(=O)N[C@H]1CCCNC1 [AZD7762] (partner 0.2 µM)", "outline": "as §1"}, "Bosutinib + Pictilisib": {"compound": "COc1cc(Nc2c(C#N)cnc3cc(OCCCN4CCN(C)CC4)c(OC)cc23)c(Cl)cc1Cl [Bosutinib] + CS(=O)(=O)N1CCN(Cc2cc3nc(-c4cccc5[nH]ncc45)nc(N4CCOCC4)c3s2)CC1 [Pictilisib] (partner 1 µM)", "outline": "as §1"}, "Bosutinib + Navitoclax": {"compound": "COc1cc(Nc2c(C#N)cnc3cc(OCCCN4CCN(C)CC4)c(OC)cc23)c(Cl)cc1Cl [Bosutinib] + CC1(C)CCC(c2ccc(Cl)cc2)=C(CN2CCN(c3ccc(C(=O)NS(=O)(=O)c4ccc(N[C@H](CCN5CCOCC5)CSc5ccccc5)c(S(=O)(=O)C(F)(F)F)c4)cc3)CC2)C1 [Navitoclax] (partner 0.5 µM)", "outline": "as §1"}, "Bosutinib + Foretinib": {"compound": "COc1cc(Nc2c(C#N)cnc3cc(OCCCN4CCN(C)CC4)c(OC)cc23)c(Cl)cc1Cl [Bosutinib] + COc1cc2c(Oc3ccc(NC(=O)C4(C(=O)Nc5ccc(F)cc5)CC4)cc3F)ccnc2cc1OCCCN1CCOCC1 [Foretinib] (partner 0.25 µM)", "outline": "as §1"}, "Bosutinib + Lapatinib": {"compound": "COc1cc(Nc2c(C#N)cnc3cc(OCCCN4CCN(C)CC4)c(OC)cc23)c(Cl)cc1Cl [Bosutinib] + CS(=O)(=O)CCNCc1ccc(-c2ccc3ncnc(Nc4ccc(OCc5cccc(F)c5)c(Cl)c4)c3c2)o1 [Lapatinib] (partner 2 µM)", "outline": "as §1"}, "Bosutinib + Olaparib": {"compound": "COc1cc(Nc2c(C#N)cnc3cc(OCCCN4CCN(C)CC4)c(OC)cc23)c(Cl)cc1Cl [Bosutinib] + O=C(c1cc(Cc2n[nH]c(=O)c3ccccc23)ccc1F)N1CCN(C(=O)C2CC2)CC1 [Olaparib] (partner 8 µM)", "outline": "as §1"}, "Bosutinib + Bortezomib": {"compound": "COc1cc(Nc2c(C#N)cnc3cc(OCCCN4CCN(C)CC4)c(OC)cc23)c(Cl)cc1Cl [Bosutinib] + CC(C)C[C@H](NC(=O)[C@H](Cc1ccccc1)NC(=O)c1cnccn1)B(O)O [Bortezomib] (partner 0.002 µM)", "outline": "as §1"}, "Bosutinib + Alpelisib": {"compound": "COc1cc(Nc2c(C#N)cnc3cc(OCCCN4CCN(C)CC4)c(OC)cc23)c(Cl)cc1Cl [Bosutinib] + Cc1nc(NC(=O)N2CCC[C@H]2C(N)=O)sc1-c1ccnc(C(C)(C)C(F)(F)F)c1 [Alpelisib] (partner 2 µM)", "outline": "as §1"}, "Bosutinib": {"compound": "COc1cc(Nc2c(C#N)cnc3cc(OCCCN4CCN(C)CC4)c(OC)cc23)c(Cl)cc1Cl [Bosutinib]", "outline": "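Acceptance criteria were a control CV below 25% and at least one doubling per plate. Lung cancer cell lines in 1536-well plates got five library-drug doses (not always all listed) √10 apart by pinning and were left 5 days with no medium change. Viability divides treated-well nuclei by vehicle-well nuclei and is the median across plates. Nuclei were counted by MetaXpress from 4× Hoechst images.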"}}, "data": [{"cell line": "NCI-H1703", "values": [{"measurement": "relative viability", "setting": "Bosutinib + Linsitinib; first compound 0.01 µM", "value": 0.804}, {"measurement": "relative viability", "setting": "Bosutinib + Linsitinib; first compound 0.03162 µM", "value": 0.932}, {"measurement": "relative viability", "setting": "Bosutinib + Linsitinib; first compound 0.1 µM", "value": 0.587}, {"measurement": "relative viability", "setting": "Bosutinib + Linsitinib; first compound 1 µM", "value": 0.388}, {"measurement": "relative viability", "setting": "Bosutinib + Crizotinib; first compound 0.01 µM", "value": 0.769}, {"measurement": "relative viability", "setting": "Bosutinib + Crizotinib; first compound 0.03162 µM", "value": 0.667}, {"measurement": "relative viability", "setting": "Bosutinib + Crizotinib; first compound 0.1 µM", "value": 0.493}, {"measurement": "relative viability", "setting": "Bosutinib + Crizotinib; first compound 1 µM", "value": 0.319}, {"measurement": "relative viability", "setting": "Bosutinib + AZD7762; first compound 0.01 µM", "value": 0.12}, {"measurement": "relative viability", "setting": "Bosutinib + AZD7762; first compound 0.03162 µM", "value": 0.132}, {"measurement": "relative viability", "setting": "Bosutinib + AZD7762; first compound 0.1 µM", "value": 0.124}, {"measurement": "relative viability", "setting": "Bosutinib + AZD7762; first compound 1 µM", "value": 0.133}, {"measurement": "relative viability", "setting": "Bosutinib + Pictilisib; first compound 0.01 µM", "value": 0.246}, {"measurement": "relative viability", "setting": "Bosutinib + Pictilisib; first compound 0.03162 µM", "value": 0.235}, {"measurement": "relative viability", "setting": "Bosutinib + Pictilisib; first compound 0.1 µM", "value": 0.242}, {"measurement": "relative viability", "setting": "Bosutinib + Pictilisib; first compound 1 µM", "value": 0.228}, {"measurement": "relative viability", "setting": "Bosutinib + Navitoclax; first compound 0.01 µM", "value": 0.985}, {"measurement": "relative viability", "setting": "Bosutinib + Navitoclax; first compound 0.03162 µM", "value": 1.06}, {"measurement": "relative viability", "setting": "Bosutinib + Navitoclax; first compound 0.1 µM", "value": 0.922}, {"measurement": "relative viability", "setting": "Bosutinib + Navitoclax; first compound 1 µM", "value": 0.43}, {"measurement": "relative viability", "setting": "Bosutinib + Foretinib; first compound 0.01 µM", "value": 0.371}, {"measurement": "relative viability", "setting": "Bosutinib + Foretinib; first compound 0.03162 µM", "value": 0.345}, {"measurement": "relative viability", "setting": "Bosutinib + Foretinib; first compound 0.1 µM", "value": 0.334}, {"measurement": "relative viability", "setting": "Bosutinib + Foretinib; first compound 1 µM", "value": 0.246}, {"measurement": "relative viability", "setting": "Bosutinib + Lapatinib; first compound 0.01 µM", "value": 1.04}, {"measurement": "relative viability", "setting": "Bosutinib + Lapatinib; first compound 0.03162 µM", "value": 1.1}, {"measurement": "relative viability", "setting": "Bosutinib + Lapatinib; first compound 0.1 µM", "value": 0.825}, {"measurement": "relative viability", "setting": "Bosutinib + Lapatinib; first compound 1 µM", "value": 0.653}, {"measurement": "relative viability", "setting": "Bosutinib + Olaparib; first compound 0.01 µM", "value": 0.371}, {"measurement": "relative viability", "setting": "Bosutinib + Olaparib; first compound 0.03162 µM", "value": 0.471}, {"measurement": "relative viability", "setting": "Bosutinib + Olaparib; first compound 0.1 µM", "value": 0.311}, {"measurement": "relative viability", "setting": "Bosutinib + Olaparib; first compound 1 µM", "value": 0.26}, {"measurement": "relative viability", "setting": "Bosutinib + Bortezomib; first compound 0.01 µM", "value": 0.34}, {"measurement": "relative viability", "setting": "Bosutinib + Bortezomib; first compound 0.03162 µM", "value": 0.332}, {"measurement": "relative viability", "setting": "Bosutinib + Bortezomib; first compound 0.1 µM", "value": 0.402}, {"measurement": "relative viability", "setting": "Bosutinib + Bortezomib; first compound 1 µM", "value": 0.236}, {"measurement": "relative viability", "setting": "Bosutinib + Alpelisib; first compound 0.01 µM", "value": 0.351}, {"measurement": "relative viability", "setting": "Bosutinib + Alpelisib; first compound 0.03162 µM", "value": 0.378}, {"measurement": "relative viability", "setting": "Bosutinib + Alpelisib; first compound 0.1 µM", "value": 0.294}, {"measurement": "relative viability", "setting": "Bosutinib + Alpelisib; first compound 1 µM", "value": 0.261}, {"measurement": "relative viability", "setting": "Bosutinib; 0.01 µM", "value": 0.869}, {"measurement": "relative viability", "setting": "Bosutinib; 0.03162 µM", "value": 0.972}, {"measurement": "relative viability", "setting": "Bosutinib; 0.1 µM", "value": 0.835}, {"measurement": "relative viability", "setting": "Bosutinib; 1 µM", "value": 0.468}]}]}
